Measurements reported in PubChem BioAssay (NCI).
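A five-concentration, 48-hour dose response in 96-well plates underlies each endpoint, interpolated linearly between surrounding concentrations. TGI denotes the concentration required for complete inhibition of growth.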

Key:
Assay in all cases: NCI tumour cell line growth inhibition, 48 h
A498 renal = system: A498 renal
TK-10 renal = system: TK-10 renal
SK-MEL-5 melanoma = system: SK-MEL-5 melanoma
LOX IMVI melanoma = system: LOX IMVI melanoma
ACHN renal = system: ACHN renal
MALME-3M melanoma = system: MALME-3M melanoma
HCT-15 colon = system: HCT-15 colon
OVCAR-4 ovarian = system: OVCAR-4 ovarian
MCF7 breast = system: MCF7 breast
SK-MEL-28 melanoma = system: SK-MEL-28 melanoma
MOLT-4 leukemia = system: MOLT-4 leukemia
K-562 leukemia = system: K-562 leukemia

Row | SMILES | TGI (A498 renal) | TGI (TK-10 renal) | TGI (SK-MEL-5 melanoma) | TGI (LOX IMVI melanoma) | TGI (ACHN renal) | TGI (MALME-3M melanoma) | TGI (HCT-15 colon) | TGI (OVCAR-4 ovarian) | TGI (MCF7 breast) | TGI (SK-MEL-28 melanoma) | TGI (MOLT-4 leukemia) | TGI (K-562 leukemia)
1 | CCOC(=O)CCc1ccc(NC(=O)/C=C/c2ccc([N+](=O)[O-])o2)cc1 | 7.27 µM | 4.07 µM | 3.49 µM | 1.54 µM | 2.73 µM | 3.14 µM | 4.05 µM | > 100 µM | 32.4 µM | 3.39 µM | 0.547 µM | 
2 | COC1(OC)C2C=CC1C([C@](C)(N)CO)C2 (stereo partly drawn) | > 100 µM | > 100 µM | > 100 µM |  | > 100 µM | > 100 µM |  | > 100 µM | > 100 µM | > 100 µM | > 100 µM | > 100 µM
3 | Oc1cccc2ccc(Br)nc12 | > 100 µM | > 100 µM | > 100 µM | > 100 µM | > 100 µM | > 100 µM | > 100 µM | > 100 µM | > 100 µM | > 100 µM | > 100 µM | > 100 µM
4 | COC(=O)[C@H](C)N(C)C(=O)[C@H](C)N1[C@@H](c2ccccc2)COC1(C)C | > 100 µM | > 100 µM | > 100 µM | > 100 µM | > 100 µM | > 100 µM | > 100 µM | > 100 µM | > 100 µM | > 100 µM | > 100 µM | > 100 µM
5 | COc1ccc(NC(/C(C(=O)C(=O)/C=C(\O)c2ccccc2)=C(\O)c2ccccc2)c2ccc(OC)cc2)cc1 (stereo not drawn) | > 100 µM | > 100 µM | > 100 µM |  | > 100 µM | 75.6 µM | > 100 µM | > 100 µM | > 100 µM | > 100 µM | > 100 µM | > 100 µM
6 | N#CC(C#N)=Cn1c(=S)[nH]c2ccc([N+](=O)[O-])cc21 | > 100 µM | > 100 µM | > 100 µM | > 100 µM | > 100 µM | > 100 µM |  | > 100 µM | > 100 µM | > 100 µM | > 100 µM | > 100 µM
7 | O=c1c2ccccc2nc(N/N=C/c2ccc(Cl)cc2)n1-c1ccccc1 | > 100 µM | > 100 µM | > 100 µM | > 100 µM | > 100 µM | > 100 µM | > 100 µM | > 100 µM | > 100 µM | > 100 µM | > 100 µM | > 100 µM
8 | COC(=O)/C(C#N)=C/c1cc(C(C)(C)C)c(O)c(C(C)(C)C)c1 | 8.37 µM | 12.9 µM | 3.39 µM | 17 µM | > 31.3 µM | 20.4 µM | 13 µM | > 51.2 µM | 15.7 µM | 15.4 µM | > 29.6 µM | > 47.8 µM
9 | CCCCCCCCCCCCCCCCCCOCC(O)CO (stereo not drawn) | > 3.96 µM |  | 3.65 µM | > 25 µM |  | > 21.1 µM | > 25 µM | > 25 µM | > 25 µM | > 25 µM | > 25 µM | > 25 µM
10 | Cc1ccc(CN2CCN(Cc3ccc(C)o3)C(C)C2)o1 (stereo not drawn) | > 100 µM | > 100 µM | > 100 µM | > 100 µM | > 100 µM | > 100 µM | > 100 µM | > 100 µM | > 100 µM | > 100 µM | > 100 µM | > 100 µM
11 | CC(C)(C)OC(=O)C1/C(=C/CBr)CN1C(=O)OC(C)(C)C (stereo not drawn) | 31.8 µM | 31.3 µM | 27.4 µM | 11.4 µM | 33 µM | 35.4 µM | 23.3 µM | 7.79 µM | 28.9 µM | 46.9 µM | 26.1 µM | 7.54 µM
12 | O=Cc1ccc(-c2ccc(S(=O)(=O)O)cc2)o1 | > 100 µM | > 100 µM | > 100 µM | > 100 µM | > 100 µM | > 100 µM | > 100 µM |  | > 100 µM | > 100 µM | > 100 µM | > 100 µM
13 | C1=Cc2cccc3occ(c23)C=C1 | > 100 µM | > 100 µM | > 100 µM | 33.8 µM | > 100 µM | > 100 µM | > 100 µM | > 100 µM | > 100 µM | > 100 µM | 79.4 µM | 40.1 µM
14 | CCOC(=O)c1ccc(N(CCOS(=O)(=O)c2ccc(C)cc2)CCOS(=O)(=O)c2ccc(C)cc2)cc1 | > 100 µM | > 100 µM | > 100 µM | > 100 µM | > 100 µM | > 100 µM | > 100 µM | > 100 µM | > 100 µM |  | > 100 µM | > 100 µM
15 | O=C(O)CCC(NC(=O)c1ccc(Oc2nc3ccccc3nc2-c2ccccc2)cc1)C(=O)O (stereo not drawn) | > 100 µM | > 100 µM |  | > 100 µM | > 100 µM | > 100 µM | > 100 µM | > 100 µM | > 100 µM | > 100 µM | > 100 µM | > 100 µM
16 | Nn1c(CCCCCCCCc2n[nH]c(=S)n2N)n[nH]c1=S | > 100 µM |  |  |  | > 100 µM | > 100 µM | > 100 µM | > 100 µM | > 100 µM | > 100 µM | > 100 µM | > 100 µM
17 | CC(=O)N1N=C(c2ccc3ccccc3c2O)CC1c1ccc(N(C)C)cc1 (stereo not drawn) | > 100 µM | > 100 µM | > 100 µM |  | > 100 µM | > 100 µM | > 100 µM | > 100 µM | > 100 µM | > 100 µM | > 100 µM | > 100 µM
18 | Cc1cnc2[nH]c(-c3ccc(Cl)cc3)cc(=O)c2c1 | > 100 µM | > 100 µM | > 100 µM | > 100 µM | > 100 µM | > 100 µM | > 40.8 µM | > 100 µM | > 72.5 µM | > 100 µM | > 53.7 µM | 19.8 µM
19 | COC(=O)[C@@H]1[C@H]2CC[C@]3(C)[C@@H](OC(C)=O)CC[C@H]3[C@@H]2CC[C@H]1C(C)=O | > 100 µM | > 100 µM | > 100 µM | > 100 µM | > 100 µM | > 100 µM | > 100 µM |  | > 100 µM | > 100 µM | > 100 µM | > 100 µM
